For the assay, the target named is histamine 3 receptor (H3R) (Homo sapiens, UniProt Q9Y5N1). Description: Binding Assay with 3H-(R)α-methylhistamine (competition binding, membranes of human H3R-CHO cell line). The settings on record: competition with 3H(R)α-methylhistamine (1 nM), Ki calculated from IC50 by Cheng-Prusoff. As to the method: Binding Assay with ^3H-(R)α-methylhistamine
Saturation binding experiments were performed using HR3-CHO membranes prepared as described in Takahashi, K, Tokita, S., Kotani, H. (2003) J. Pharmacol. Exp. Therapeutics 307, 213-218.
An appropriate amount of membrane (60 to 80 μg protein/well) was incubated with increasing concentrations of ^3H(R)α-Methylhistamine di-hydrochloride (0.10 to 10 nM). Non specific binding was determined using a 200 fold excess of cold (R)α-Methylhistamine dihydrobromide (500 nM final concentration). The incubation was carried out at room temperature (in deep-well plates shaking for three hours). The final volume in each well was 250 μl. The incubation was followed by rapid filtration on GF/B filters (pre-soaked with 100 μl of 0.5% PEI in Tris 50 mM shaking at 200 rpm for two hours). The filtration was made using a cell-harvester and the filter plates were then washed five times with ice cold washing buffer containing 0.5 M NaCl. After harvesting, the plates were dried at 55° C. for 60 min, then we added scintillation fluid (Microscint 40, 40 microl in each well) and the amount of radioactivity on the filter was determined in Packard top-counter after shaking the plates for two hours at 200 rpm at room temperature.
Binding Buffer: 50 mM Tris-HCl pH 7.4 and 5 mM MgCl2×6H2O pH 7.4. Washing Buffer: 50 mM Tris-HCl pH 7.4 and 5 mM MgCl2×6H2O and 0.5 M NaCl pH 7.4.
Indirect measurement of affinity of H3R inverse agonists: twelve increasing concentrations (ranging from 10 μM to 0.3 nM) of the selected compounds were always tested in competition binding experiments using membrane of the human H3R—CHO cell line. […]
All compounds were tested at a single concentration in duplicate. […] Ki's were calculated from IC50 based on Cheng-Prusoff equation (Cheng, Y, Prusoff, W H (1973) Biochem Pharmacol 22, 3099-3108): Ki=IC50/[1+D/Kd] wherein D is the concentration of the radioligand and Kd is the binding constant for the radioligand binding to the receptor under the conditions used in the competition experiment.

Chain of histamine 3 receptor (H3R) (Q9Y5N1 whole entry): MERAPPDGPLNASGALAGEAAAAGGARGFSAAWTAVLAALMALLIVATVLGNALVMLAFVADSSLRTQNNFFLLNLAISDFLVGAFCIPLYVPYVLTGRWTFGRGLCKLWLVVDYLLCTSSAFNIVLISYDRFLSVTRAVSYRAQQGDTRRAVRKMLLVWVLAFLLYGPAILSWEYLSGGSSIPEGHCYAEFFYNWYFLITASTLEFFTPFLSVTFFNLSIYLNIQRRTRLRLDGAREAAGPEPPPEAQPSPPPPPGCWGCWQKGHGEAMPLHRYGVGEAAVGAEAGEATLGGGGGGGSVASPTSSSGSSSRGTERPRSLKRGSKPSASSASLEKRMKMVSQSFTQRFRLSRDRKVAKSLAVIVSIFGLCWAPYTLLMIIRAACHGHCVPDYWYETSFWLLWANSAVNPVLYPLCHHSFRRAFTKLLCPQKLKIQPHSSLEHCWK

Take `CC(C)N1CCN(C(=O)c2ccc3c(c2)cc(C(=O)N2CCN(S(C)(=O)=O)CC2)n3-c2ccnc(Cl)c2)CC1` [Example 7, [1-(2-Chloro-pyridin-4-yl)-5-(4-isopropyl-piperazine-1-carbonyl)-1H-indol-2-yl]-(4-methanesulfonyl-piperazin-1-yl)-methanone]: the Ki is 11.7 nM.

For the compound `CC(C)N1CCN(C(=O)c2ccc3c(c2)cc(C(=O)N2CCN(S(=O)(=O)c4ccccc4)CC2)n3-c2ccnc(Cl)c2)CC1` [Example 17, (4-Benzenesulfonyl-piperazin-1-yl)-[1-(2-chloro-pyridin-4-yl)-5-(4-isopropyl-piperazine-1-carbonyl)-1H-indol-2-yl]-methanone], the Ki was 5.7 nM.

On to `CC(C)N1CCN(C(=O)c2ccc3c(c2)cc(C(=O)N2CCN(C(=O)N4CCCCC4)CC2)n3-c2ccnc(Cl)c2)CC1` [Example 19, [1-(2-Chloro-pyridin-4-yl)-5-(4-isopropyl-piperazine-1-carbonyl)-1H-indol-2-yl]-[4-(piperidine-1-carbonyl)-piperazin-1-yl]-methanone], for which the Ki is 7.5 nM.

These data come from patent US7648979B2, “5-amido-(1H-indol-2-yl)-piperazin-1-yl-methanone derivatives” (Hoffmann-La Roche Inc., priority 2007, dated 2010).
